{"source": "paper PMC5915681", "about": "(PLoS ONE, 2018)", "origin": "cited, not measured here", "parameters": "method as in PMID 24450858, PMID 24450857"}
{"smiles": "CC[C@H](Nc1ncnc2[nH]cnc12)c1nc2cccc(F)c2c(=O)n1-c1ccccc1", "note": "[idelalisib, Idelalisib]", "values": [{"measurement": "side effects", "value": "hepatotoxicity and gastrointestinal toxicity"}]}
